Assay [1] concerns subject's mood. Description: Actimood scoring (correlation of EmoChar and IRT values). The format is in vivo, human. The method, then:
(§1) 1. Sensorial and Emotional Evaluation of Fragrance Raw Materials Each fragrance was evaluated by 30 subjects. At each appointment, the subject discovered fragrances in one sequence of four fragrances and two sequences of three fragrances separated by a 10-minute break.
(§2) For each fragrance, the subject discovered each fragrance on a card strip for 10 seconds. Between each product, a rest-period of 2 minutes was carried out during which the subject smelt their own body odour by smelling their wrist and the subject drank a little bit of water as well.
Emochar™ is a system of emotional characterization, scoring 7 main emotional dimensions from 0 to 10: • Stimulation: focus, attention, and awakening. • Relaxation: serenity, relaxation and appeasing. • Sensual: arousing, sexy and erotic. • Pleasure: liking, “gourmand” and satisfaction. • Tenderness: gentleness and softness. • Joy: excitement, fun and enthusiasm. • Self-esteem: confidence and assurance
Actimood scores are based on a correlation of EmoChar™ and IRT values. The scores are classified on a scale from 0 (low impact on subject's mood) to 3 (high impact on subject's mood).
Each score is obtained according to an algorithm, mixing verbal and non-verbal responses of volunteers to a specific product, or stimulus in a given context. The algorithm was developed from extensive field data, and in accordance with scientific literature and validated biobehavioral patterns associated to various emotional states.

Assay [2] relates to subject's mood. Description: Implicit response test (IRT). The arrangement: scale not given here. It counts as in vivo, human. The method, then:
as §1
During those appointments, the subjects smelt the fragrances in a random way.
as §2
The evaluation is carried out in standardized lighting conditions and under a monitored temperature (temperature 21±1.5° C.).
Implicit response tests (IRTs) are a family of tests and assess the subjects' immediate, “gut instinct” responses the fragrance raw materials.
The alleged underlying processes are based on how neurosciences describe the way our brain processes information. Indeed, our brain processes information through two systems: System 2, which is slow and processes conscious information, and System 1, which is fast and processes non-conscious information.
The IRT tests are performed at a computer, where the following words appear on the computer screen: • Energizing • Relaxing • Attractive • Sensual • Joyful • Protective • Confident • Fresh • Well-being
The subject has to click on the screen with the computer mouse to indicate their accordance or not of the word with the tested fragrance. In addition, the times to click the button are recorded.

Setting [3] is: well-being mood (Table 10), scale 0 (low impact) to 3 (high impact).
The mark [4] stands for this setting: self-confident mood (Table 9), scale 0 (low impact) to 3 (high impact).
[5] abbreviates: ingredients of the fragrance composition conveying an attractive mood (Table 2).
Where [6] appears, read: attractive mood (Table 11), scale 0 (low impact) to 3 (high impact).
Setting [7] is: relaxing mood (Composition 2, Table 4), scale 0 (low impact) to 3 (high impact).
Where [8] appears, read: energizing mood (Table 7), scale 0 (low impact) to 3 (high impact).
[9] abbreviates: sensual mood (Table 8), scale 0 (low impact) to 3 (high impact).
Setting [10] is: joyful mood (Table 6), scale 0 (low impact) to 3 (high impact).
The mark [11] stands for this setting: relaxing and sleep enhancing mood (Composition 1, Table 3), scale 0 (low impact on subject's mood) to 3 (high impact).
Setting [12] is: protective mood (Table 5), scale 0 (low impact) to 3 (high impact).
Where [13] appears, read: ingredients of the fragrance composition conveying a fresh mood (Table 1).
[14] abbreviates: fresh mood (Table 12), scale 0 (low impact) to 3 (high impact).

Consider `CC/C=C/CCO` [HEXENOL CIS-3 10% DPG, Hexenol], for which the Actimood score with subject's mood [1] (setting [3]) worked out at 0.
For `COC(=O)c1ccccc1N` [METHYL ANTHRANILATE, Methyl anthranilate], in the assay on subject's mood [1] (setting [4]), the Actimood score is reported as 0.
`O=C(OCc1ccccc1)c1ccccc1O` [BENZYL SALICYLATE, benzyl 2-hydroxybenzoate]: the Actimood score in the assay with subject's mood [1] (setting [4]) is given as 1.
For the compound `CC(C)(C)c1ccc(CCC=O)cc1` [BOURGEONAL, 3-(4-tert-butylphenyl)propanal], the “IRT Score” value in the assay with subject's mood [2] (setting [5]) was 1045. For the same compound, the Actimood score amounted to 3 in the assay on subject's mood [1] (setting [6]), 3 in the assay with subject's mood [1] (setting [7]) and 2 in the assay with subject's mood [1] (setting [4]).
As to `C=CC(C)CCCC(C)(C)O` (stereo not shown) [DIHYDRO MYRCENOL, 2,6-dimethyloct-7-en-2-ol], the “IRT Score” value in the assay with subject's mood [2] (setting [5]) was found to be 1599. In addition, the Actimood score in the assay on subject's mood [1] (setting [6]), in the assay on subject's mood [1] (setting [8]) and in the assay with subject's mood [1] (setting [9]) was 3 throughout.
As to `CCCCCCC1OC(=O)CC1C` (stereo not shown) [APRIFLOREN ®, 5-Hexyldihydro-4-methylfuran-2(3H)-one], the Actimood score in the assay with subject's mood [1] (setting [10]) and with subject's mood [1] (setting [4]) was 2 each time.
Take `COC(=O)c1c(C)cc(O)c(C)c1O` [EVERNYL 10% DPG, Methyl-2,4-dihydroxy-3,6-dimethyl-benzoate]: the Actimood score in the assay on subject's mood [1] (setting [11]) is 1.
As for `CC(=O)C1(C)CC2=C(CCCC2(C)C)CC1C` (stereo not shown) [ISO E SUPER, 1-[2,3,8,8-tetramethyl-1,3,4,5,6,7-hexanhydronaphthalen-2-yl]ethanone], the Actimood score with subject's mood [1] (setting [10]), with subject's mood [1] (setting [9]) and with subject's mood [1] (setting [3]) was 2 in each case.
In the assay with subject's mood [1] (setting [12]), `CC(=O)C1CC/C(C)=C/CC/C(C)=C/C/C=C/1C` (stereo not shown) [TRIMOFIX O, 1-[(2E,5E,9E)-2,6,10-trimethylcyclododeca-2,5,9-trien-1-yl]ethanone] came in with an Actimood score of 2.
In the assay on subject's mood [1] (setting [10]), `COc1ccc(CCC(C)=O)cc1` [FRAMBINON ®, Methoxyphenylbutanone] yielded an Actimood score of 3.
Take `COC(OC)C(C)(C)CC=C(C)C` [AMAROCIT ®, 6,6-Dimethoxy-2,5,5-trimethylhex-2-ene]: the “IRT Score” value in the assay on subject's mood [2] (setting [13]) is reported as 1763. Moreover, the Actimood score in the assay with subject's mood [1] (setting [8]) and in the assay with subject's mood [1] (setting [14]) was 3 throughout.
As to `CCCCC[C@@H]1C(=O)CC[C@H]1CC(=O)OC` (racemic) [HEDIONE, methyl-2-[RAC-(1S,2S)-3-oxo-2-pentyl-cyclopentyl]acetate], the Actimood score worked out at 2 in the assay on subject's mood [1] (setting [14]), 0 in the assay on subject's mood [1] (setting [10]), 2 with subject's mood [1] (setting [11]) and 0 with subject's mood [1] (setting [3]).
As for `CCCCCCCC1CCC(=O)O1` (stereo not shown) [ALDEHYDE C14 SO-CALLED, 5-heptyltetrahydrofuran-2-one], the Actimood score in the assay with subject's mood [1] (setting [4]) was determined as 2.
Take `CC(=O)/C=C/C1C(C)=CCCC1(C)C` (stereo not drawn) [IONONE ALPHA, (E)-4-(2,6,6-trimethylcyclohex-2-en-1-yl)but-3-en-2-one]: the Actimood score in the assay with subject's mood [1] (setting [7]) was 3; in the assay with subject's mood [1] (setting [4]), 1.
As to `CC(C)=CCC/C(C)=C/C=O` [CITRAL FF, (2E)-3,7-Dimethylocta-2,6-dienal], the “IRT Score” value in the assay with subject's mood [2] (setting [13]) is on record as 2393. Further, the Actimood score with subject's mood [1] (setting [8]) and in the assay on subject's mood [1] (setting [14]) was 3 each time.
Regarding `Cc1cccc(CC(C)(C)CO)c1` [MAJANTOL ®, beta,beta-3-Trimethyl-benzenepropanol], the Actimood score in the assay on subject's mood [1] (setting [4]) and in the assay on subject's mood [1] (setting [9]) was 2 each time.
Consider `CC/C=C\CCOC(C)=O` [HEXENYL ACETATE CIS-3 10% DPG, Hexenyl acetat], for which, in the assay on subject's mood [1] (setting [3]), the Actimood score worked out at 0.
Regarding `O=C1CCCCCCCCCCCCCCO1` [MACROLIDE ® SUPRA, Pentadecan-15-olide], in the assay on subject's mood [2] (setting [5]), the “IRT Score” value is on record as 1944. In addition, the Actimood score with subject's mood [1] (setting [6]) is reported as 3; in the assay with subject's mood [1] (setting [12]) it was 2; with subject's mood [1] (setting [7]), 3; with subject's mood [1] (setting [3]), 2.
Regarding `OCCc1ccccc1` [PHENYLETHYL ALCOHOL BA FREE, 2-phenylethanol], the Actimood score in the assay with subject's mood [1] (setting [11]) worked out at 2; in the assay on subject's mood [1] (setting [4]) it was 1.
Regarding `CC/C=C\CCOC(=O)OC` [LEAFOVERT ®, (Z)-Hex-3-en-1-yl methyl carbonate], the values for the Actimood score in the assay on subject's mood [1] (setting [10]), in the assay with subject's mood [1] (setting [4]) and in the assay on subject's mood [1] (setting [3]) were 3, 0 and 2, respectively.
Regarding `CC(=O)/C=C/C1=C(C)CCCC1(C)C` [IONONE BETA, (E)-4-(2,6,6-trimethylcyclohexen-1-yl)but-3-en-2-one], the Actimood score in the assay with subject's mood [1] (setting [10]) and in the assay with subject's mood [1] (setting [3]) was 3 each time.
For the compound `CC1=CC(C)C(C=O)CC1` (stereo not shown) [VERTOCITRAL, 2,4-Dimethylcyclohex-3-ene-1-carbaldehyde], the Actimood score in the assay with subject's mood [1] (setting [8]) came out at 1; with subject's mood [1] (setting [3]), 0.
Consider `C=CC(C)(O)CCC=C(C)CC` (mixture of isomers) [ETHYL LINALOOL, (6E)-3,7-dimethylnona-1,6-dien-3-ol], for which the “IRT Score” value was 1682 in the assay with subject's mood [2] (setting [13]) and 565 in the assay with subject's mood [2] (setting [5]). Further, the Actimood score in the assay with subject's mood [1] (setting [6]) was determined as 2; in the assay with subject's mood [1] (setting [8]) it was 1; in the assay on subject's mood [1] (setting [14]), 3; with subject's mood [1] (setting [10]), 2.
With `CC1COCc2cc3c(cc21)C(C)(C)C(C)C3(C)C` (stereo not shown) [GALAXOLIDE PURE, 4,6,6,7,8,8-hexamethyl-1,3,4,7-tetrahydrocyclopenta[G]isochromene], the Actimood score in the assay on subject's mood [1] (setting [12]) was 2; in the assay with subject's mood [1] (setting [7]) it was 3.
In the case of `O=C1CCCCCCCCCCCC(=O)OCCO1` [ETHYLENE BRASSYLATE, 1,4-dioxacycloheptadecane-5,17-dione], in the assay on subject's mood [2] (setting [5]), the “IRT Score” value is reported as 1177. Further, the Actimood score in the assay on subject's mood [1] (setting [6]) is recorded as 3; with subject's mood [1] (setting [11]) it was 2; in the assay on subject's mood [1] (setting [4]) it was 2; in the assay with subject's mood [1] (setting [9]), 3.
On to `CCC(=O)OCC(C)(C)OC(C)C1CCCC(C)(C)C1` (stereo not shown) [HELVETOLIDE, [2-[1-(3,3-dimethylcyclohexyl)ethoxy]-2-methyl-propyl]propanoate], for which the Actimood score is 2 in the assay with subject's mood [1] (setting [12]), 3 in the assay with subject's mood [1] (setting [11]), 3 in the assay with subject's mood [1] (setting [7]) and 2 with subject's mood [1] (setting [4]).
With `CC(=O)OC1CCC(C(C)(C)C)CC1` (stereo not shown) [ORYCLON HC, (4-tert-butylcyclohexyl) acetate], the Actimood score with subject's mood [1] (setting [11]) worked out at 1.
Take `CC(CC=O)CCCC(C)(C)O` (stereo not shown) [HYDROXY CITRONELLAL, 7-hydroxy-3,7-dimethyl-octanal]: the “IRT Score” value in the assay on subject's mood [2] (setting [5]) stood at 1283. Also, the Actimood score in the assay with subject's mood [1] (setting [6]) is reported as 3; with subject's mood [1] (setting [4]), 1.
Take `O=C1CCCCCCCC=CCCCCCCO1` [AMBRETTOLIDE HC SUPREME, Oxacycloheptadec-10-en-2-one]: the Actimood score with subject's mood [1] (setting [11]) worked out at 2.
`CC(C=O)Cc1ccc2c(c1)OCO2` (stereo not shown) [3-(1,3-benzodioxol-5-yl)-2-methyl-propanal]: the “IRT Score” value in the assay on subject's mood [2] (setting [13]) is listed as 742.
With `C=C1CCC=C(C)CCC2C1CC2(C)C` (stereo not shown) [CARYOPHYLLENE NAT. RECT., 4,11,11-trimethyl-8-methylene-bicyclo[7.2.0]undec-4-ene], the Actimood score with subject's mood [1] (setting [7]) and with subject's mood [1] (setting [4]) was 3 throughout.
As to `CC(C)C1CC=C(CCC=O)CC1` (single isomer, unassigned; (+)) [LILYBELLE ®, (+)-3-(4-Isopropylcyclohexen-1-yl)propanal], the Actimood score turned out to be 3 in the assay with subject's mood [1] (setting [14]) and 0 in the assay on subject's mood [1] (setting [3]).
The compound `CCc1ccc(CC(C)(C)C=O)cc1` [FLORALOZONE, 3-(4-ethylphenyl)-2,2-dimethylpropanal] returned an Actimood score with subject's mood [1] (setting [14]) of 3.
For the compound `CCCCCCCCC1CCC(=O)O1` (stereo not shown) [DODECALACTONE GAMMA 10% DPG, gamma-Dodecalactone], the Actimood score in the assay with subject's mood [1] (setting [11]) is reported as 1.
In the assay with subject's mood [1] (setting [10]), `CCCC(C)C(=O)OCC` (stereo not shown) [MANZANATE, ethyl-2-methylpentanoate] came in with an Actimood score of 3.
Regarding `O=Cc1ccc2c(c1)OCO2` [HELIOTROPIN, 1,3-benzodioxole-5-carbaldehyde], the Actimood score with subject's mood [1] (setting [3]) came out at 2.
On to `CC(C)CCC1CCC(O)CC1` (stereo not shown) [SYMROSE ®, 4-Isopentylcyclohexanol], for which, in the assay on subject's mood [1] (setting [11]), the Actimood score is on record as 2.
Consider `C=CCCCCOC(=O)C(C)CC` (stereo not shown) [FRUCTATE ®, Hex-5-enyl 2-methylbutanoate], for which the Actimood score in the assay on subject's mood [1] (setting [9]) amounted to 0.
Regarding `CCCCCCOC(C)=O` [HEXYL ACETATE, hexyl acetate], the Actimood score with subject's mood [1] (setting [8]) came to 1; with subject's mood [1] (setting [10]), 2.
For the compound `CC(C)=CCCC(C)CCO` (stereo not shown) [CITRONELLOL 950, 3,7-dimethyloct-6-en-1-ol], in the assay with subject's mood [1] (setting [4]), the Actimood score is 1.
